The values that follow come from ChEMBL document CHEMBL5543128, “Recent Discovery and Development of Inhibitors that Target CDK9 and Their Therapeutic Indications” (J Med Chem, 2024).

Broadly, the IC50 is the concentration that gives 50% inhibition. As usually defined, the Kd is the equilibrium constant for the complex coming apart. Broadly, the inhibition is the percentage by which the read-out fell short of the control. Low readings indicate little suppression, high ones strong suppression. As usually defined, the Ki is a measure of affinity in units of concentration, obtained from inhibition or displacement. In general, Emax refers to the size of the effect at its maximum, as opposed to the concentration needed.

Data set [1] has as its system MOLM-13. Put plainly: cells. Particulars: Homo sapiens, MOLM-13, 96 h.
In data set [2] the target is Cyclin-dependent kinase 4 (Homo sapiens, UniProt P11802). Put plainly: Inhibition of CDK4 (unknown origin).
The nature of data set [3]: Inhibition of CDK2/CYCA (unknown origin). Also noted: species or system Homo sapiens.
The test system of data set [4] is MOLM-13. Kind of data set: Antiproliferative activity against human MOLM-13 cells assessed as reduction in cell viability incubated for 72 hrs by MTT assay. Type of data set: functional, cell-based. The note with it: MOLM-13, 72 h. In general terms: Tetrazolium assays rely on reduction of a dye to a coloured formazan, in cell work by metabolically active cells.

Data set [5] deals with T1, Cyclin-dependent kinase 9 (Homo sapiens, UniProt P50750). Kind of data set: Inhibition of CDK9 (unknown origin).
Data set [6] has as its target Cyclin-dependent kinase 5 (Homo sapiens, UniProt Q00535).
Data set [7] addresses Casein kinase I isoform alpha (Homo sapiens, UniProt P48729). Kind of data set: Binding affinity to CK1alpha (unknown origin) assessed as dissociation constant.
Data set [8] addresses T1, Cyclin-dependent kinase 9. Put plainly: Binding affinity to CDK9 (unknown origin) assessed as dissociation constant.
Another data set deals with A498. Kind of data set: Antiproliferative activity against human A498 cells assessed as reduction in cell viability incubated for 72 hrs by MTT assay. The format is functional, cell-based. Particulars: A498, 72 h.
Data set [9] in a line: Antiproliferative activity against human A-293 cells assessed as reduction in cell viability measured for 48 hrs by MTT assay. Particulars: A-293 (AD293) cells. Type of data set: toxicity, cell-based.
Data set [10] has as its target T2, CDK9/cyclin T1 (Homo sapiens, UniProt P50750). Kind of data set: Inhibition of CDK9/cyclin T1 (unknown origin). Type of data set: protein-complex assay.
Data set [11] addresses T1, Cyclin-dependent kinase 9. Put plainly: Inhibition of CDK9 (unknown origin) at 100 nM relative to control.
Another data set addresses Histone deacetylase 1 (Homo sapiens, UniProt Q13547). Put plainly: Inhibition of HDAC1 (unknown origin) by fluorescence based assay.
The subject of data set [12] is MV4-11. Put plainly: Cytotoxicity against human MV4-11 cells assessed as cell growth reduction measured for 48 hrs by MTT assay. Type of data set: functional.
Another data set relates to L02. Put plainly: Antiproliferative activity against human L02 cells assessed as reduction in cell viability incubated for 72 hrs by MTT assay. Type of data set: functional, cell-based. Particulars: L02, 72 h.
The nature of data set [13]: Cytotoxicity against human HEK293T cells assessed as reduction in cell viability incubated for 72 hrs by MTT assay. Type of data set: toxicity, cell-based, HEK-293T.
A further data set concerns HCT-116. Kind of data set: Antiproliferative activity against human HCT-116 cells assessed as reduction in cell viability incubated for 72 hrs by CCK-8 assay. Type of data set: functional, cell-based. The note with it: HCT-116, 72 h.
The next data set concerns K562. Kind of data set: Antiproliferative activity against human K562 cells assessed as reduction in cell viability incubated for 72 hrs by CCK-8 assay. Type of data set: functional, cell-based. Particulars: K562, 72 h.
For the next data set, the system named is MCF7. Kind of data set: Antiproliferative activity against human MCF7 cells assessed as reduction in cell viability incubated for 72 hrs by MTT assay. Type of data set: functional, cell-based. Particulars: MCF7, 72 h.
The nature of data set [14]: Downregulation of RNAP2 phosphorylation at serine 2 residue in human MV4-11 cells. The format is functional, cell-based.
Data set [15] relates to MV4-11. Put plainly: Antiproliferative activity against human MV4-11 cells assessed as reduction in cell growth incubated for 48 hrs by MTT assay. Type of data set: functional, cell-based. Particulars: MV4-11, 48 h.
The target in data set [16] is Cyclin-dependent kinase 7 (Homo sapiens, UniProt P50613). Put plainly: Inhibition of CDK7 (unknown origin).
Data set [17] deals with MV4-11. Put plainly: Cytotoxicity against human MV4-11 cells assessed as reduction in cell viability measured for 72 hrs by cellTiter-Glo assay. The format is functional, cell-based. Particulars: MV4-11, 72 h. On the technique in general: Cellular ATP, detected with luciferase, serves as a proxy for viable cell number.
A further data set relates to OCI-AML-3. Kind of data set: Antiproliferative activity against human OCI-AML-3 assessed as reduction in cell viability incubated for 48 hrs by CellTiter-Glo cell vaibility assay. Type of data set: functional, cell-based. Particulars: OCI-AML-3, 48 h.
Data set [18] addresses Receptor-type tyrosine-protein kinase FLT3 (Homo sapiens, UniProt P36888, ITD). Put plainly: Binding affinity FLT3-ITD mutant (unknown origin) assessed as inhibition constant.
Data set [19] has as its target T2, CDK9/cyclin T1. Put plainly: Binding affinity to CDK9/cyclin T1 (unknown origin) assessed as inhibition constant. The format is protein-complex assay.
In data set [20] the target is Cyclin-dependent kinase 2/cyclin E1 (Homo sapiens, UniProt P24941). Kind of data set: Inhibition of CDK2/cyclin E1 (unknown origin). Type of data set: protein-complex assay.
Another data set has as its target CDK7/Cyclin H/MNAT1 (Homo sapiens, UniProt P50613). Put plainly: Inhibition of CDK7/CycH/MAT1 (unknown origin). Type of data set: protein-complex assay.
Data set [21] concerns the target T1, Cyclin-dependent kinase 9.
For data set [22], the target named is T3, Protein cereblon/Cyclin-dependent kinase 9 (Homo sapiens) (UniProt P50750+Q96SW2). Put plainly: PROTAC activity at CRBN/CDK9 in human MV4-11 cells assessed as maximal degradation of CDK9 at 20 uM measured for 6 hrs by Western blot analysis. The format is cell-based. (A western blot detects proteins with antibodies after separation by electrophoresis.)
Data set [23] concerns the target T3, Protein cereblon/Cyclin-dependent kinase 9 (Homo sapiens). Kind of data set: PROTAC activity at CRBN/CDK9 in human MV4-11 cells assessed as maximal degradation of CDK9 at 10 uM measured for 6 hrs by Western blot analysis. Type of data set: cell-based.

T1 sequence (P50750 whole entry): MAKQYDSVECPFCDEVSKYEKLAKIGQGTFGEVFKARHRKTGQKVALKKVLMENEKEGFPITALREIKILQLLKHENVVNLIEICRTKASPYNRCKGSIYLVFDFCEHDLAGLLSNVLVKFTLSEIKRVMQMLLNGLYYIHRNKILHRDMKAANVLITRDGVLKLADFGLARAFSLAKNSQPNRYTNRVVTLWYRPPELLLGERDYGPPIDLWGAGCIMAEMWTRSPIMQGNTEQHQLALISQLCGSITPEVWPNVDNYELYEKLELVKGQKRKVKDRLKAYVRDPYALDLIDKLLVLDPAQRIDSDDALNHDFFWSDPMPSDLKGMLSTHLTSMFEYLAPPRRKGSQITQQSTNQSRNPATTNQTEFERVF
Cyclin-dependent kinase 4, sequence (P11802 whole entry): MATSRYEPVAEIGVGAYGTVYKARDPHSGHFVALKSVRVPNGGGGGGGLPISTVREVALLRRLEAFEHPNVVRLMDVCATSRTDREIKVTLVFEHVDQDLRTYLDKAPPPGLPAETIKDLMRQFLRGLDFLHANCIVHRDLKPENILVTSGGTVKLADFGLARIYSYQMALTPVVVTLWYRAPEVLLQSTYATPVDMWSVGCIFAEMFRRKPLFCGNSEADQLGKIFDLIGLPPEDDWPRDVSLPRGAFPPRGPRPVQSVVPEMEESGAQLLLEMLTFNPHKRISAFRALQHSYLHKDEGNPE
T3 sequence (P50750 whole entry, looked up): as the sequence (P50750 whole entry) above
T3 sequence (Q96SW2 whole entry, looked up): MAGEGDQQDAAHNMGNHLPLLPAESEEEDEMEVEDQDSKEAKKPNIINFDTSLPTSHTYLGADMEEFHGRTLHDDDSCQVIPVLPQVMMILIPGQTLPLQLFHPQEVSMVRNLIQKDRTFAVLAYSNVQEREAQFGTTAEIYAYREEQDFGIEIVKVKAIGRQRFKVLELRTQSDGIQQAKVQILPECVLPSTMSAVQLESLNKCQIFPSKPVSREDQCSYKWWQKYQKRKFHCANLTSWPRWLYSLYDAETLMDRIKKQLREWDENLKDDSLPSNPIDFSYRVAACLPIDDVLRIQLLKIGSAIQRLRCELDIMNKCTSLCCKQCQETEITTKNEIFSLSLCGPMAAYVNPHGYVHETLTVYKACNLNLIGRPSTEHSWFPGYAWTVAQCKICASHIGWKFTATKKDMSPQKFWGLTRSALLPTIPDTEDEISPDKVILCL
T2 sequence (O60563 whole entry): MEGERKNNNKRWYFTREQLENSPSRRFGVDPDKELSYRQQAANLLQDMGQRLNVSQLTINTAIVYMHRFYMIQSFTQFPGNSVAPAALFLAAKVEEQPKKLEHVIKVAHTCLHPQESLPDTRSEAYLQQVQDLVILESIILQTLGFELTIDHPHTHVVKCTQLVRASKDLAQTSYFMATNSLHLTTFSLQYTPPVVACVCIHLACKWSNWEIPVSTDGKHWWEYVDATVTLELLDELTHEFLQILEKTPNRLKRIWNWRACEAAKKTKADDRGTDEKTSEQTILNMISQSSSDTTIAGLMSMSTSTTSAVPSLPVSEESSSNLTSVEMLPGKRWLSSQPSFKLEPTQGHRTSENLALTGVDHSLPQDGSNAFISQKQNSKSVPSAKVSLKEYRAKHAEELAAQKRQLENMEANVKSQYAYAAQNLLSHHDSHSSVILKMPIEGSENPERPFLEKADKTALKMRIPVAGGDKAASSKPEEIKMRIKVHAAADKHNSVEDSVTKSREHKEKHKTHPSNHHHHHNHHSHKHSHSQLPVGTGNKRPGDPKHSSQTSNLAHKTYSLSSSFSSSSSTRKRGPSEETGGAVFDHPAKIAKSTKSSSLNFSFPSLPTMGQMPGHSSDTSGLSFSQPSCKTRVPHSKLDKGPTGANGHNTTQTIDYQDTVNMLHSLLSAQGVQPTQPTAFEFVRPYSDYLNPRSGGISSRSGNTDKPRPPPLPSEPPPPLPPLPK
T2 sequence (P50750 whole entry): as the sequence (P50750 whole entry) above
Casein kinase I isoform alpha, sequence (P48729 whole entry, canonical isoform): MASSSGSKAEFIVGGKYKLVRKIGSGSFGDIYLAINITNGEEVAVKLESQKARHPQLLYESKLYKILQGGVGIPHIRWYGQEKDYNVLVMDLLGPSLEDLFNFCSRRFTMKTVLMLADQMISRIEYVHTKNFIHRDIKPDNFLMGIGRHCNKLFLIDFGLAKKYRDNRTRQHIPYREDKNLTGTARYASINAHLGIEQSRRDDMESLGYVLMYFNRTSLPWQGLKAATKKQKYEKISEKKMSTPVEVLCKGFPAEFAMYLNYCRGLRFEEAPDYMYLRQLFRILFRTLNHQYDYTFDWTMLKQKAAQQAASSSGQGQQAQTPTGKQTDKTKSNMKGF
Cyclin-dependent kinase 5, sequence (Q00535 whole entry, canonical isoform): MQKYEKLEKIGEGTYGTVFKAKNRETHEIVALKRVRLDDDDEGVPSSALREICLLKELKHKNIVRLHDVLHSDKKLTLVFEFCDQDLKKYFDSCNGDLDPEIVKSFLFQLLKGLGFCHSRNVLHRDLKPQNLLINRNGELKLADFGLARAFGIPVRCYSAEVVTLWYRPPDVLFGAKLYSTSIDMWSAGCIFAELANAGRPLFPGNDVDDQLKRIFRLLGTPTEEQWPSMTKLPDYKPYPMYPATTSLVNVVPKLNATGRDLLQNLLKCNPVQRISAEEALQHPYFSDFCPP
CDK7/Cyclin H/MNAT1, sequence (P51946 whole entry): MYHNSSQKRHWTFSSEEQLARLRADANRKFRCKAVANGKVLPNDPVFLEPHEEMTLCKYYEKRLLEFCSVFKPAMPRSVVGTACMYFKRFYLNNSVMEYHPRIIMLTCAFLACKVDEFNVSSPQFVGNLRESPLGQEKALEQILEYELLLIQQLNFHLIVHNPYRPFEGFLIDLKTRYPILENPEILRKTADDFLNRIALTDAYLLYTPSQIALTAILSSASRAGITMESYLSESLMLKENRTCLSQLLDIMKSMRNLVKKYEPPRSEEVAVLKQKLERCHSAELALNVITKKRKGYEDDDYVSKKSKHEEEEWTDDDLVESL
CDK7/Cyclin H/MNAT1, sequence (P50613 whole entry): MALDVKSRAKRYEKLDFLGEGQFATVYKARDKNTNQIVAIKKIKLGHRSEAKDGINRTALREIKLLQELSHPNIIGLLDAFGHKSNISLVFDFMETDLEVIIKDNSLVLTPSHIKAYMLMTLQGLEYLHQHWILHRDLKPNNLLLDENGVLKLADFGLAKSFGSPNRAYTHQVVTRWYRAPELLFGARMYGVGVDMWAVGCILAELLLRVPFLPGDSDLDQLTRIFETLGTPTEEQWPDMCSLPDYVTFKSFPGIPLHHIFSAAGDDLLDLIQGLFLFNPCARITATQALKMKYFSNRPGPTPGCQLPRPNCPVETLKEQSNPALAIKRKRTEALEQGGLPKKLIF
CDK7/Cyclin H/MNAT1, sequence (P51948 whole entry, further chain): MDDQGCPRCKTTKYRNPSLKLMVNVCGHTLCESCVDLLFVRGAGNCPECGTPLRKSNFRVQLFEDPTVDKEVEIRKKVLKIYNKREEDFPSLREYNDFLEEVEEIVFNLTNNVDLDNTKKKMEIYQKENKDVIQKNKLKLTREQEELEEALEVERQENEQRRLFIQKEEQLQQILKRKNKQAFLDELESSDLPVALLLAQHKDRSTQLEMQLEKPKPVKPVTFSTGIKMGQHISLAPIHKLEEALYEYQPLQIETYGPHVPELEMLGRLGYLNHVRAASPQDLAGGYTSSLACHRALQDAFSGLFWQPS
Histone deacetylase 1, sequence (Q13547 whole entry): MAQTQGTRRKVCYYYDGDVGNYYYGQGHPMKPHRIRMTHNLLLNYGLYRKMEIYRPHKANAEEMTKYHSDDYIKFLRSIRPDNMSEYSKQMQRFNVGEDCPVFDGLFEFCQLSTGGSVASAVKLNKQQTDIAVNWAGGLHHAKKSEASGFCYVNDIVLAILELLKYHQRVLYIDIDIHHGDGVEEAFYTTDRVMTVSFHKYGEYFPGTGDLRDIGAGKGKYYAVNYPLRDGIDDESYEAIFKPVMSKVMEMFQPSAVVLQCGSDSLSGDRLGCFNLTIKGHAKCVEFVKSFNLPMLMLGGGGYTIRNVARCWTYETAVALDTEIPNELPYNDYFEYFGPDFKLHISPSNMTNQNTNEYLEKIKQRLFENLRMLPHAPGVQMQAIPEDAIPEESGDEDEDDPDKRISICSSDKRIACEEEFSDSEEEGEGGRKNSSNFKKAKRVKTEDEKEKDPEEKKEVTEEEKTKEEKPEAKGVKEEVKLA
Cyclin-dependent kinase 7, sequence (P50613 whole entry): as the sequence (P50613 whole entry) above

`COc1cc(F)ccc1-c1ncnc(Nc2cccc(C[S@](C)(=N)=O)c2)n1` [ATUVECICLIB] yielded an IC50 with MOLM-13 [1] of 310 nM.
As for `CN(C)C(=O)c1cc2cnc(Nc3ccc(S(N)(=O)=O)cc3)nc2n1C1CCCC1`, the IC5 in [2] was 12 nM.
Turning to `COc1cc(O)c2c(=O)cc(-c3ccc(N4CCN(C)CC4)cc3)oc2c1N1CCNCC1`, inhibition in data set [3] was half-maximal at 1180 nM (IC50).
Take `COc1cc(F)ccc1-c1cc(Nc2cc(C[S@](C)(=N)=O)ccn2)ncc1F`: the half-inhibitory concentration (IC50) with MOLM-13 [4] worked out at 29 nM.
`COc1ccccc1-c1cccc(Nc2cccc(N3CCCNCC3)c2)n1`: the 50% inhibitory concentration (IC50) in [5] was 16 nM; in data set [6], 574 nM.
On to `COc1ccccc1-c1ccnc(Nc2ccc3c(c2)CC(=O)C(C(C)=O)C3C)n1` (stereo unspecified), for which, in data set [5], the 50% inhibitory concentration (IC50) was determined as 184 nM.
In the case of `Cn1ncc(-c2nc(NC3CCC(N)CC3)ncc2Cl)c1CC1CC1` (stereo unspecified), the equilibrium dissociation constant (Kd) in [7] turned out to be 5.3 nM; in [8] it was 4 nM.
In the case of `CN(C)C/C=C\C(=O)Nc1ccc(C(=O)N[C@H]2CC[C@H](Nc3cc(-c4cccc(NCc5cccc(F)c5)n4)c(Cl)cn3)CC2)cc1`, the values for the IC50 with A498 and against CDK9/cyclin T1 [10] were less than 700 nM and 196 nM, respectively. For the same compound, the half-inhibitory concentration (IC50) at 48 h in data set [9] was 3230 nM.
`Nc1ccccc1NC(=O)c1ccc(NC(=O)c2n[nH]cc2NC(=O)c2c(Cl)cccc2Cl)cc1`: the inhibition in data set [11] was 98.3%. Moreover, the IC50 on Histone deacetylase 1 was found to be 98 nM.
The compound `CCN1C(=O)COc2c(CN3CCOCC3)cc(Nc3nccc(-c4cccnc4)n3)cc21` came in with an IC5 in data set [5] of 6.7 nM.
`Cn1ncc(-c2nc(NC3CCC(N)CC3)ncc2F)c1CC1CC1` (stereo unspecified): the dissociation constant (Kd) came to 9.8 nM in data set [7] and 5.4 nM in [8].
Consider `CCC(CC)c1cc(N[C@H]2CC[C@H](N)C2)n2nccc2n1` [ISTISOCICLIB], for which, in the data set with MV4-11 [12], the GR50 amounted to 0.288 µM.
For the compound `COc1ccc(C(=O)Nc2cc(-c3ccnc(N4CCC(O)CC4)c3)ccn2)cc1`, the IC50 with L02 is more than 800 nM. The IC50 at 72 h in [13] is more than 800 nM.
Regarding `COC[C@H](C)N[C@H]1CC[C@H](Nc2cc(-c3cccc(NCC4(C#N)CCOCC4)n3)c(Cl)cn2)CC1`, the IC50 in data set [5] was less than 0.514 nM.
For the compound `c1ccc(CNc2c(-c3ccncc3)nc3cnccn23)cc1`, the IC50 with HCT-116, in the data set with K562 and with MCF7 was 7000 nM in each case.
With `CC(=O)N[C@H]1CCC[C@@H](C(=O)Nc2cc(-c3cnn4c3CC(C)(C)C4)c(Cl)cn2)C1`, the IC50 was determined as 13 nM in [14] and 13.7 nM with MV4-11 [15].
On to `COCCN[C@H]1CC[C@H](Nc2cc(-c3csc(NCC4(C#N)CCOCC4)n3)c(Cl)cn2)CC1`, for which the concentration for half-maximal inhibition (IC50) was 172 nM in data set [16], 2 nM in data set [5] and 12 nM with MV4-11 [17].
For the compound `COc1ccc(Nc2c(-c3ccoc3)nc3cnccn23)cc1`, the IC50 in the data set with HCT-116, with K562 and in the data set with MCF7 was 11600 nM each time.
Take `N[C@H]1CC[C@H](Nc2cc(-c3cccc(NCc4cccc(F)c4)n3)c(Cl)cn2)CC1`: the half-maximal inhibitory concentration (IC50) in the data set on A498 was 57 nM; in [5] it was less than 0.4 nM. In addition, the concentration for half-maximal inhibition (IC50) at 48 h in data set [9] stood at 76 nM.
In the case of `Cc1ccc([N+](=O)[O-])cc1S(=O)(=O)N(C)/N=C/c1cnc2ccc(Br)cn12`, the IC50 in the data set with OCI-AML-3 is 220 nM.
`COc1ccccc1-c1cc(Nc2cccc(CS(N)(=O)=O)c2)ncn1` registered an IC50 in data set [3] of 2440 nM.
In turn, `N[C@H]1CCN(c2c3c(nc4ccc(-c5ccnc(NC(=O)C6CC6)n5)cc24)CCCC3)C1` yielded an IC50 in data set [5] of 2.23 nM.
On to `Cc1cnc(NC2CCC(N)CC2)nc1-c1cnc2ccc(-c3ccccc3)cn12` (stereo unspecified), for which the figures for the Ki (in data set [18]; on CDK9/cyclin T1 [19]) were 13 nM and 8 nM, respectively.
Turning to `O=c1cc(-c2cccc(O)c2)oc2c1ccc1occc12`, the results for the IC50 (in [20]; against CDK7/Cyclin H/MNAT1) were more than 20000 nM and 93 nM, respectively.
In the case of `CC(C)c1c2cc(-c3ccnc(Nc4ccc5c(N6CCN(C)CC6)ncnc5c4)n3)ccc2nn1C`, the 50% inhibitory concentration (IC50) amounted to 1.9 nM in data set [21] and 2.2 nM in data set [2].
With `O=C1CCC(N2C(=O)c3cccc(OCCCCCOc4ccc(CC(=O)Nc5cc(C6CCC6)[nH]n5)cc4)c3C2=O)C(=O)N1` (stereo unspecified), the values for the Emax in [22] and in [23] were 65% and 56%, respectively.
